In brackets after ≈: the same amount, converted by molar mass.
Experiments:
Assay in all cases: ≥ marks a high value that may be exact or a test limit, other limits are often not marked, values filed in µg/mL are converted to µM
[1] = test system: Staphylococcus aureus NCTC 10788
[2] = test system: Staphylococcus aureus ATCC 25923
[3] = test system: Escherichia coli ATCC 25726
Klebsiella pneumoniae = test system: Klebsiella pneumoniae
[4] = test system: Escherichia coli DH5alpha
Salmonella typhimurium = test system: Salmonella typhimurium
Pseudomonas aeruginosa = test system: Pseudomonas aeruginosa
[5] = test system: Micrococcus luteus ATCC 9341
[6] = test system: Pseudomonas aeruginosa KCTC 1637
[7] = test system: Staphylococcus aureus KCTC 1621
[8] = test system: Bacillus subtilis KCTC 3068
[9] = test system: Escherichia coli KCTC 1682
[10] = test system: Staphylococcus epidermidis KCTC 1917
[11] = test system: Salmonella typhimurium KCTC 1926
[12] = test system: Staphylococcus aureus ATCC 33591
[13] = test system: Escherichia coli ATCC 25922
[14] = test system: Staphylococcus epidermidis ATCC 12228
Escherichia coli UB1005 = test system: Escherichia coli UB1005
[15] = test system: Enterococcus faecalis ATCC 29212
[16] = test system: Salmonella enterica subsp. enterica serovar Typhimurium C77-31
[17] = test system: Staphylococcus aureus ATCC 29213

**Q.** With `CC(C)C[C@H](NC(=O)[C@H](CC(C)C)NC(=O)CNC(=O)[C@H](C)NC(=O)[C@H](CC(C)C)NC(=O)[C@H](CC(C)C)NC(=O)CNC(=O)[C@@H]1CCCN1C(=O)[C@H](CC(C)C)NC(=O)[C@@H](N)Cc1ccccc1)C(N)=O` [FLPGLLAGLL] as the molecule, how does the MIC [1] read?
**A.** ≥ 60 µM

**Q.** What does the source list for `CC[C@H](C)[C@H](NC(=O)[C@H](CC(C)C)NC(=O)[C@H](Cc1cnc[nH]1)NC(=O)[C@@H]1CCCN1C(=O)[C@@H](NC(=O)[C@@H](NC(=O)[C@H](CCCCN)NC(=O)[C@H](C)NC(=O)[C@@H](NC(=O)CNC(=O)[C@H](CCCCN)NC(=O)[C@H](CC(C)C)NC(=O)CNC(=O)[C@H](CC(C)C)NC(=O)[C@H](CCCCN)NC(=O)[C@H](CC(C)C)NC(=O)[C@H](CC(C)C)NC(=O)[C@@H]1CCCN1C(=O)CNC(=O)[C@H](CC(C)C)NC(=O)[C@H](Cc1ccccc1)NC(=O)CN)C(C)C)C(C)C)[C@@H](C)CC)C(=O)N1CCC[C@H]1C(=O)N[C@@H](CO)C(=O)N[C@@H](CCCN=C(N)N)C(=O)N[C@@H](CCC(N)=O)C(=O)N[C@@H](CCC(N)=O)C(=O)O` [GFLGPLLKLGLKGVAKVIPHLIPSRQQ]?
**A.** MIC [2]: 2.5 µM (≈ 7.2 µg/mL); MIC [3]: ≥ 40 µM

**Q.** What does the source list for `CC[C@H](C)[C@H](N)C(=O)N[C@@H](CC(C)C)C(=O)N[C@@H](C)C(=O)N[C@@H](Cc1c[nH]c2ccccc12)C(=O)N[C@@H](CCCCN)C(=O)N[C@@H](Cc1c[nH]c2ccccc12)C(=O)N[C@@H](C)C(=O)N[C@@H](Cc1c[nH]c2ccccc12)C(=O)N[C@@H](Cc1c[nH]c2ccccc12)C(=O)N1CCC[C@H]1C(=O)N[C@@H](Cc1c[nH]c2ccccc12)C(=O)N[C@@H](CCCN=C(N)N)C(=O)N[C@@H](CCCN=C(N)N)C(N)=O` [ILAWKWAWWPWRR]?
**A.** MIC (Klebsiella pneumoniae): 25 µM (≈ 46.4 µg/mL); MIC [4]: 15 µM (≈ 27.8 µg/mL); MIC (Salmonella typhimurium): 25 µM (≈ 46.4 µg/mL); MIC (Pseudomonas aeruginosa): 100 µM (≈ 185 µg/mL)

**Q.** With `CC[C@H](C)[C@H](N)C(=O)N[C@@H](CC(C)C)C(=O)N[C@@H](C)C(=O)N[C@@H](Cc1c[nH]c2ccccc12)C(=O)N[C@@H](CCCCN)C(=O)N[C@@H](Cc1c[nH]c2ccccc12)C(=O)N1CCC[C@H]1C(=O)N[C@@H](Cc1c[nH]c2ccccc12)C(=O)N[C@@H](Cc1c[nH]c2ccccc12)C(=O)N[C@@H](C)C(=O)N[C@@H](Cc1c[nH]c2ccccc12)C(=O)N[C@@H](CCCN=C(N)N)C(=O)N[C@@H](CCCN=C(N)N)C(N)=O` [ILAWKWPWWAWRR] as the molecule, how does the MIC (Klebsiella pneumoniae) read?
**A.** 50 µM (≈ 92.7 µg/mL)

**Q.** What about the MIC [4] of the same molecule?
**A.** 25 µM (≈ 46.4 µg/mL)

**Q.** And the MIC (Salmonella typhimurium)?
**A.** 25 µM (≈ 46.4 µg/mL)

**Q.** And the MIC (Pseudomonas aeruginosa)?
**A.** 100 µM (≈ 185 µg/mL)

**Q.** With `CC[C@H](C)[C@H](N)C(=O)N[C@@H](CC(C)C)C(=O)N1CCC[C@H]1C(=O)N[C@H](C(=O)N[C@@H](CCCCN)C(=O)N[C@H](C(=O)N1CCC[C@H]1C(=O)N[C@H](C(=O)N[C@H](C(=O)N1CCC[C@H]1C(=O)N[C@H](C(=O)N[C@@H](CCCN=C(N)N)C(=O)N[C@@H](CCCN=C(N)N)C(N)=O)C(C)C)C(C)C)C(C)C)C(C)C)C(C)C` [ILPVKVPVVPVRR] as the molecule, how does the MIC [5] read?
**A.** ≥ 100 µM

**Q.** For `CC[C@H](C)[C@H](N)C(=O)N[C@@H](CC(C)C)C(=O)N1CCC[C@H]1C(=O)N[C@@H](Cc1c[nH]c2ccccc12)C(=O)N[C@@H](C)C(=O)N[C@@H](Cc1c[nH]c2ccccc12)C(=O)N1CCC[C@H]1C(=O)N[C@@H](Cc1c[nH]c2ccccc12)C(=O)N[C@@H](Cc1c[nH]c2ccccc12)C(=O)N1CCC[C@H]1C(=O)N[C@@H](Cc1c[nH]c2ccccc12)C(=O)N[C@@H](CCCN=C(N)N)C(=O)N[C@@H](CCCN=C(N)N)C(N)=O` [ILPWAWPWWPWRR], which MIC [5] is on record?
**A.** 0.8 µM (≈ 1.48 µg/mL)

**Q.** What does the source list for `CC[C@H](C)[C@H](N)C(=O)N[C@@H](CC(C)C)C(=O)N1CCC[C@H]1C(=O)N[C@@H](Cc1c[nH]c2ccccc12)C(=O)N[C@@H](CCCCN)C(=O)N[C@@H](CCCCN)C(=O)N1CCC[C@H]1C(=O)N[C@@H](CCCCN)C(=O)N[C@@H](CCCCN)C(=O)N1CCC[C@H]1C(=O)N[C@@H](Cc1c[nH]c2ccccc12)C(=O)N[C@@H](CCCN=C(N)N)C(=O)N[C@@H](CCCN=C(N)N)C(N)=O` [ILPWKKPKKPWRR]?
**A.** MIC [6]: 11.5 µM (≈ 20 µg/mL); MIC [7]: 5.77 µM (≈ 9.99 µg/mL); MIC [8]: 5.77 µM (≈ 9.99 µg/mL); MIC [9]: 2.88 µM (≈ 5 µg/mL); MIC [10]: 2.88 µM (≈ 5 µg/mL); MIC [11]: 5.77 µM (≈ 9.99 µg/mL)

**Q.** `CC[C@H](C)[C@H](N)C(=O)N[C@@H](CC(C)C)C(=O)N1CCC[C@H]1C(=O)N[C@@H](Cc1c[nH]c2ccccc12)C(=O)N[C@@H](CCCN=C(N)N)C(=O)N[C@@H](Cc1c[nH]c2ccccc12)C(=O)N1CCC[C@H]1C(=O)N[C@@H](Cc1c[nH]c2ccccc12)C(=O)N[C@@H](Cc1c[nH]c2ccccc12)C(=O)N1CCC[C@H]1C(=O)N[C@@H](Cc1c[nH]c2ccccc12)C(=O)N[C@@H](CCCN=C(N)N)C(=O)N[C@@H](CCCN=C(N)N)C(N)=O` [ILPWRWPWWPWRR] was tested. Which MIC [5] did it give?
**A.** 0.4 µM (≈ 0.774 µg/mL)

**Q.** `CC[C@H](C)[C@H](NC(=O)[C@@H](N)CCCCN)C(=O)N[C@@H](Cc1c[nH]c2ccccc12)C(=O)N[C@@H](Cc1ccccc1)C(=O)N[C@@H](CCC(N)=O)C(=O)N[C@@H](CC(N)=O)C(=O)N[C@@H](CCCN=C(N)N)C(=O)N[C@@H](CCCN=C(N)N)C(=O)N[C@@H](CCSC)C(=O)N[C@@H](CCCCN)C(=O)N[C@@H](Cc1c[nH]c2ccccc12)C(=O)N[C@@H](CCCCN)C(=O)N[C@@H](CCCCN)C(N)=O` [KIWFQNRRMKWKK] was tested. Which MIC [12] did it give?
**A.** ≥ 256 µM

**Q.** And the MIC [13]?
**A.** 128 µM (≈ 237 µg/mL)

**Q.** For `C[C@@H](O)[C@H](NC(=O)[C@H](CCCCN)NC(=O)[C@H](Cc1c[nH]c2ccccc12)NC(=O)[C@H](Cc1c[nH]c2ccccc12)NC(=O)[C@@H](NC(=O)[C@H](CCCCN)NC(=O)[C@@H](N)CCCCN)[C@@H](C)O)C(=O)N[C@@H](Cc1c[nH]c2ccccc12)C(=O)N[C@@H](Cc1c[nH]c2ccccc12)C(=O)N[C@H](C(=O)N[C@@H](CCCCN)C(=O)N[C@@H](Cc1c[nH]c2ccccc12)C(=O)N[C@@H](CCCCN)C(=O)N[C@@H](CCCCN)C(=O)O)[C@@H](C)O` [KKTWWKTWWTKWKK], which MIC [6] is on record?
**A.** 4 µM (≈ 8.09 µg/mL)

**Q.** What about the MIC [7] of the same molecule?
**A.** 2 µM (≈ 4.04 µg/mL)

**Q.** And the MIC [8]?
**A.** 2 µM (≈ 4.04 µg/mL)

**Q.** What about the MIC [9] of the same molecule?
**A.** 2 µM (≈ 4.04 µg/mL)

**Q.** What about the MIC [10] of the same molecule?
**A.** 2 µM (≈ 4.04 µg/mL)

**Q.** And the MIC [11]?
**A.** 2 µM (≈ 4.04 µg/mL)

**Q.** Which MIC [5] does the source give for `NCCCC[C@H](NC(=O)[C@H](Cc1c[nH]c2ccccc12)NC(=O)[C@@H]1CCCN1)C(=O)N[C@@H](Cc1c[nH]c2ccccc12)C(=O)N1CCC[C@H]1C(=O)N[C@@H](Cc1c[nH]c2ccccc12)C(=O)N[C@@H](Cc1c[nH]c2ccccc12)C(=O)N1CCC[C@H]1C(=O)N[C@@H](Cc1c[nH]c2ccccc12)C(=O)N[C@@H](CCCN=C(N)N)C(=O)N[C@@H](CCCN=C(N)N)C(N)=O` [PWKWPWWPWRR] here?
**A.** 0.8 µM (≈ 1.34 µg/mL)

**Q.** With `CC[C@H](C)[C@H](NC(=O)[C@H](CCCCN)NC(=O)[C@H](CCCCN)NC(=O)[C@H](CC(C)C)NC(=O)[C@H](CCCN=C(N)N)NC(=O)[C@H](CCCCN)NC(=O)[C@H](CCCN=C(N)N)NC(=O)[C@@H](NC(=O)[C@H](Cc1c[nH]c2ccccc12)NC(=O)[C@H](Cc1c[nH]c2ccccc12)NC(=O)[C@H](CCCN=C(N)N)NC(=O)[C@H](CC(C)C)NC(=O)[C@H](CCCN=C(N)N)NC(=O)[C@H](CCCN=C(N)N)NC(=O)[C@H](Cc1ccccc1)NC(=O)[C@@H](N)CCCN=C(N)N)[C@@H](C)O)C(N)=O` [RFRRLRWWTRKRLKKI] as the molecule, how does the MIC [14] read?
**A.** 4 µM (≈ 9.2 µg/mL)

**Q.** And the MIC (Escherichia coli UB1005)?
**A.** 8 µM (≈ 18.4 µg/mL)

**Q.** And the MIC [15]?
**A.** 8 µM (≈ 18.4 µg/mL)

**Q.** And the MIC [16]?
**A.** 8 µM (≈ 18.4 µg/mL)

**Q.** Which results are given for `CC[C@H](C)[C@H](NC(=O)[C@H](CCCN=C(N)N)NC(=O)[C@H](CC(C)C)NC(=O)[C@H](CC(C)C)NC(=O)[C@@H](N)CCCN=C(N)N)C(=O)N[C@H](C(=O)N[C@H](C(=O)N[C@H](C(=O)N[C@@H](CCCN=C(N)N)C(=O)N[C@H](C(=O)N[C@@H](CC(C)C)C(=O)N[C@@H](CCCN=C(N)N)C(N)=O)C(C)C)[C@@H](C)CC)C(C)C)C(C)C` [RLLRIVVIRVLR]?
**A.** MIC [6]: 4.15 µM (≈ 6.25 µg/mL); MIC [7]: 8.3 µM (≈ 12.5 µg/mL); MIC [8]: 8.3 µM (≈ 12.5 µg/mL); MIC [9]: 16.6 µM (≈ 25 µg/mL); MIC [10]: 8.3 µM (≈ 12.5 µg/mL); MIC [11]: 4.15 µM (≈ 6.25 µg/mL)

**Q.** With `CC(C)C[C@H](NC(=O)[C@H](CCCN=C(N)N)NC(=O)[C@H](Cc1c[nH]c2ccccc12)NC(=O)[C@H](CCCN=C(N)N)NC(=O)[C@@H](NC(=O)[C@H](Cc1c[nH]c2ccccc12)NC(=O)[C@H](Cc1c[nH]c2ccccc12)NC(=O)[C@H](CCCN=C(N)N)NC(=O)[C@H](CC(C)C)NC(=O)[C@H](CCCN=C(N)N)NC(=O)[C@@H](N)CCCN=C(N)N)[C@@H](C)O)C(=O)N[C@@H](CCCCN)C(N)=O` [RRLRWWTRWRLK] as the molecule, how does the MIC [14] read?
**A.** 8 µM (≈ 14.5 µg/mL)

**Q.** What about the MIC [13] of the same molecule?
**A.** 4 µM (≈ 7.25 µg/mL)

**Q.** What about the MIC (Escherichia coli UB1005) of the same molecule?
**A.** 4 µM (≈ 7.25 µg/mL)

**Q.** What about the MIC [2] of the same molecule?
**A.** 8 µM (≈ 14.5 µg/mL)

**Q.** What about the MIC [16] of the same molecule?
**A.** 8 µM (≈ 14.5 µg/mL)

**Q.** What about the MIC [17] of the same molecule?
**A.** 4 µM (≈ 7.25 µg/mL)

**Q.** For `NC(=O)[C@H](CCCN=C(N)N)NC(=O)[C@H](Cc1c[nH]c2ccccc12)NC(=O)[C@@H](N)CCCN=C(N)N` [RWR], which MIC [6] is on record?
**A.** ≥ 124 µM

**Q.** What about the MIC [7] of the same molecule?
**A.** ≥ 124 µM

**Q.** And the MIC [9]?
**A.** ≥ 124 µM

**Q.** And the MIC [10]?
**A.** ≥ 124 µM
